Experimental findings from ChEMBL document CHEMBL2074221, “Breast cancer resistance protein (BCRP/ABCG2) induces cellular resistance to HIV-1 nucleoside reverse transcriptase inhibitors” (Mol Pharmacol, 2003) are described below.

Structures are written as SMILES. *1 amine or outer side, *2 acyl side, *3 side chain or, on linkers, in order; H or OH if unused. Where a SMILES comes first, the peptide text is derived from it. Bridges are numbered along the chain shown (N, C = ends). Roman numbers before positions name the chains, in order. [ ]: non-standard residue; d: D form. Actinocin(9to1) = Cc1c2oc3c(C)ccc(C(=O)[*:1])c3nc-2c(C(=O)[*:2])c(N)c1=O; NMeV = CN[C@H](C(=O)O)C(C)C; Sar = CNCC(=O)O

One series has as its target T1, Broad substrate specificity ATP-binding cassette transporter ABCG2 (Homo sapiens, UniProt Q9UNQ0).
T1 sequence (Q9UNQ0 whole entry): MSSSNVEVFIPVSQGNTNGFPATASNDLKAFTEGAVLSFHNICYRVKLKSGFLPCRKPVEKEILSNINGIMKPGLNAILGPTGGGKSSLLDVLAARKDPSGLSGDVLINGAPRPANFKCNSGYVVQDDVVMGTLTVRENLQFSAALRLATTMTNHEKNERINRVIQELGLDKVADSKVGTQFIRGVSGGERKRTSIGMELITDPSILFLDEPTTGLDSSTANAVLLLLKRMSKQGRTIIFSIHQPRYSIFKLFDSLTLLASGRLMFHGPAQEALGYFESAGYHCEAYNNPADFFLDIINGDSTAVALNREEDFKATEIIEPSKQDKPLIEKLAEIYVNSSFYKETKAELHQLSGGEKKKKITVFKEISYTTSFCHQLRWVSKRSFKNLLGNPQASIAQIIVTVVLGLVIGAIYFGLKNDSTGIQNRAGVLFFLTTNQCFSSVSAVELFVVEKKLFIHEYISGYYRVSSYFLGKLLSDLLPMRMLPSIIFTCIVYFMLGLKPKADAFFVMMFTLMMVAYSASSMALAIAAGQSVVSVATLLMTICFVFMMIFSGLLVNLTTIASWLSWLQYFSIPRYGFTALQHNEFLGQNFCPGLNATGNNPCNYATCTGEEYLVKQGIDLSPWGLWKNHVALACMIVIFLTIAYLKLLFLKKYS
In words: TP_TRANSPORTER: Anti-HIV-1 activity in MT-4 and MT-4/DOX500. The format is functional, cell-based.
With `Nc1ccn([C@@H]2CS[C@H](CO)O2)c(=O)n1` [LAMIVUDINE], the Activity entry is “substrate []”. The same measure, in the same setting: as for `Cc1cn([C@H]2C[C@H](N=[N+]=[N-])[C@@H](CO)O2)c(=O)[nH]c1=O` [ZIDOVUDINE], the entry is “substrate []”.

The next series deals with T1, Broad substrate specificity ATP-binding cassette transporter ABCG2. In words: TP_TRANSPORTER: Cytotoxicity in MT-4 and MT-4/DOX500 cells. The format is functional, cell-based.
As to `CCc1c2c(nc3ccc(O)cc13)-c1cc3c(c(=O)n1C2)COC(=O)[C@]3(O)CC` [7-ETHYL-10-HYDROXYCAMPTOTHECIN], the Activity entry was “substrate []”.

As for `Cc1c2oc3c(C)ccc(C(=O)N[C@@H]4C(=O)N[C@H](C(C)C)C(=O)N5CCC[C@H]5C(=O)N(C)CC(=O)N(C)[C@@H](C(C)C)C(=O)O[C@@H]4C)c3nc-2c(C(=O)N[C@@H]2C(=O)N[C@H](C(C)C)C(=O)N3CCC[C@H]3C(=O)N(C)CC(=O)N(C)[C@@H](C(C)C)C(=O)O[C@@H]2C)c(N)c1=O` [DACTINOMYCIN] (I: T[dV]P[Sar][NMeV] / II: T[dV]P[Sar][NMeV]; ester I:1-I:C, II:1-II:C; linker I:N-II:N via Actinocin(9to1)), the Activity entry was “substrate []”. In the case of `COc1cccc2c1C(=O)c1c(O)c3c(c(O)c1C2=O)C[C@@](O)(C(=O)CO)C[C@@H]3O[C@H]1C[C@H](N)[C@H](O)[C@H](C)O1` [DOXORUBICIN], the Activity entry is “substrate []”. With `COc1cc([C@@H]2c3cc4c(cc3[C@@H](O[C@@H]3O[C@@H]5CO[C@@H](C)O[C@H]5[C@H](O)[C@H]3O)[C@H]3COC(=O)[C@H]23)OCO4)cc(OC)c1O` [ETOPOSIDE], the Activity result was “substrate []”. Same read-out and setting: the result for `CCc1c2c(nc3ccc(OC(=O)N4CCC(N5CCCCC5)CC4)cc13)-c1cc3c(c(=O)n1C2)COC(=O)[C@]3(O)CC` [IRINOTECAN] reads “substrate []”; that for `O=C1c2c(O)ccc(O)c2C(=O)c2c(NCCNCCO)ccc(NCCNCCO)c21` [MITOXANTRONE], “substrate []”; that for `Cc1cn([C@H]2C[C@H](N=[N+]=[N-])[C@@H](CO)O2)c(=O)[nH]c1=O` [ZIDOVUDINE], “substrate []”.
